# According to ChEMBL document CHEMBL1136358, “Discovery and initial SAR of 2-amino-5-carboxamidothiazoles as inhibitors of the Src-family kinase p56(Lck)” (Bioorg Med Chem Lett, 2003):
# Assays:
# [1] = target: T1, Tyrosine-protein kinase Lck (Homo sapiens, UniProt P06239); assay: Inhibition of human Lck(hLck) kinase
# [2] = target: T2, Proto-oncogene tyrosine-protein kinase LCK (Mus musculus, UniProt P06240); assay: Inhibition of mouse Lck(mLck) kinase at 50 uM (Inactive)
# [3] = target: T1, Tyrosine-protein kinase Lck; assay: Inhibition of human Lck(hLck) kinase at 50 uM (Inactive)
# [4] = target: T1, Tyrosine-protein kinase Lck
# Description: Inhibitory activity human Lck(hLck) kinase
# [5] = target: T1, Tyrosine-protein kinase Lck; assay: Inhibition of human p56 Lck tyrosine kinase
# [6] = target: T2, Proto-oncogene tyrosine-protein kinase LCK; assay: Inhibition of mouse p56 Lck tyrosine kinase
# [7] = target: T2, Proto-oncogene tyrosine-protein kinase LCK; assay: In vitro inhibition of murine Lck kinase.
# [8] = target: Cyclin-dependent kinase 2 (Homo sapiens, UniProt P24941); assay: Inhibition of CDK2 kinase
# [9] = target: Fibroblast growth factor receptor (Homo sapiens, UniProt P22607+P11362+P22455+P21802); assay: Inhibition of FGF receptor; format: protein assay
# Focal adhesion kinase 1 = Focal adhesion kinase 1 (Homo sapiens, UniProt Q05397); assay: Inhibition of FAK kinase
# Focal adhesion kinase 1, sequence (Q05397 whole entry): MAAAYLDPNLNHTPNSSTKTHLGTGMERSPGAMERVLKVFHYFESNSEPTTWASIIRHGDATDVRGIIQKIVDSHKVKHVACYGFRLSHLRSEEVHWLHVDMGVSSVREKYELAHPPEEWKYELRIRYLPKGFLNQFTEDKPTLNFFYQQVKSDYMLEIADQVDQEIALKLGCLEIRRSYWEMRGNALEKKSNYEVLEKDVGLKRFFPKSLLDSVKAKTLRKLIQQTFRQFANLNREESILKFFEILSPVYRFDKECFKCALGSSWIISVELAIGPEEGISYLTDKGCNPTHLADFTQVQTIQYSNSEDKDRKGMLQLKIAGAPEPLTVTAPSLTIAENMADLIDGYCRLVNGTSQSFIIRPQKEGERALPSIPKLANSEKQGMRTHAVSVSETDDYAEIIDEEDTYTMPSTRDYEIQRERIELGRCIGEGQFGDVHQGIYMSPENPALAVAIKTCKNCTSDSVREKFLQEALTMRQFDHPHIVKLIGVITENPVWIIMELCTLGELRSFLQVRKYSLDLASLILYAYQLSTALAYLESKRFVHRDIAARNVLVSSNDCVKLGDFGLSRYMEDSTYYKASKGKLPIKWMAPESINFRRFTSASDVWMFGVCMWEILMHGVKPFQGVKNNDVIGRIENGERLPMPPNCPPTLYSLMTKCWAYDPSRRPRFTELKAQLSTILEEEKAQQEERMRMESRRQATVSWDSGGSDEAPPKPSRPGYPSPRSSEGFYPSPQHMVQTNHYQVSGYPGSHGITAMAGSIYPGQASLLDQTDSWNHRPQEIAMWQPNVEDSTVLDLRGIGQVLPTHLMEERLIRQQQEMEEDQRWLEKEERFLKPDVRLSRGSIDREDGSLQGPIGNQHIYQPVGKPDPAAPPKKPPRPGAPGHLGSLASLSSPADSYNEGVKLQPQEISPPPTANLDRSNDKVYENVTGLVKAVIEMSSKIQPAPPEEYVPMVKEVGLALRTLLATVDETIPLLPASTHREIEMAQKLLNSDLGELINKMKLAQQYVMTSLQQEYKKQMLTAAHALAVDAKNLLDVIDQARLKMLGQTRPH
# [10] = target: Tyrosine-protein kinase Fyn (Homo sapiens, UniProt P06241); assay: Inhibition of Fyn kinase
# Tyrosine-protein kinase Fyn, sequence (P06241 whole entry): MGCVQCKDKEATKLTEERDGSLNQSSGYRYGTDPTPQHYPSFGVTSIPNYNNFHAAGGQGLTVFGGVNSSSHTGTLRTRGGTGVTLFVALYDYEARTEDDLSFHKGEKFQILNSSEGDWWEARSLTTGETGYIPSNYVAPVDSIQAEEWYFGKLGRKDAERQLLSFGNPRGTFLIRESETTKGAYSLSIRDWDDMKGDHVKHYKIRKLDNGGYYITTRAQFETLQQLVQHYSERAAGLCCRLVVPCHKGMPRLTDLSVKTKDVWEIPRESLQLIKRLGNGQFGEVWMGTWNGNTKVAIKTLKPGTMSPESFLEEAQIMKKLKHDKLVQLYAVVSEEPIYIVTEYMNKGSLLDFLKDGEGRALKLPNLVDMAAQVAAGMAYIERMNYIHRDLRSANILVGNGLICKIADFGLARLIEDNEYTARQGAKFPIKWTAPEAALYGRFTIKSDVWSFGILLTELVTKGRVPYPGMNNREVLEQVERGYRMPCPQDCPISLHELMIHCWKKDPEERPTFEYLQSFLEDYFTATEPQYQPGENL
# [11] = target: Receptor tyrosine-protein kinase erbB-2 (Homo sapiens, UniProt P04626); assay: Inhibition of HER2 kinase
# Receptor tyrosine-protein kinase erbB-2, sequence (P04626 whole entry): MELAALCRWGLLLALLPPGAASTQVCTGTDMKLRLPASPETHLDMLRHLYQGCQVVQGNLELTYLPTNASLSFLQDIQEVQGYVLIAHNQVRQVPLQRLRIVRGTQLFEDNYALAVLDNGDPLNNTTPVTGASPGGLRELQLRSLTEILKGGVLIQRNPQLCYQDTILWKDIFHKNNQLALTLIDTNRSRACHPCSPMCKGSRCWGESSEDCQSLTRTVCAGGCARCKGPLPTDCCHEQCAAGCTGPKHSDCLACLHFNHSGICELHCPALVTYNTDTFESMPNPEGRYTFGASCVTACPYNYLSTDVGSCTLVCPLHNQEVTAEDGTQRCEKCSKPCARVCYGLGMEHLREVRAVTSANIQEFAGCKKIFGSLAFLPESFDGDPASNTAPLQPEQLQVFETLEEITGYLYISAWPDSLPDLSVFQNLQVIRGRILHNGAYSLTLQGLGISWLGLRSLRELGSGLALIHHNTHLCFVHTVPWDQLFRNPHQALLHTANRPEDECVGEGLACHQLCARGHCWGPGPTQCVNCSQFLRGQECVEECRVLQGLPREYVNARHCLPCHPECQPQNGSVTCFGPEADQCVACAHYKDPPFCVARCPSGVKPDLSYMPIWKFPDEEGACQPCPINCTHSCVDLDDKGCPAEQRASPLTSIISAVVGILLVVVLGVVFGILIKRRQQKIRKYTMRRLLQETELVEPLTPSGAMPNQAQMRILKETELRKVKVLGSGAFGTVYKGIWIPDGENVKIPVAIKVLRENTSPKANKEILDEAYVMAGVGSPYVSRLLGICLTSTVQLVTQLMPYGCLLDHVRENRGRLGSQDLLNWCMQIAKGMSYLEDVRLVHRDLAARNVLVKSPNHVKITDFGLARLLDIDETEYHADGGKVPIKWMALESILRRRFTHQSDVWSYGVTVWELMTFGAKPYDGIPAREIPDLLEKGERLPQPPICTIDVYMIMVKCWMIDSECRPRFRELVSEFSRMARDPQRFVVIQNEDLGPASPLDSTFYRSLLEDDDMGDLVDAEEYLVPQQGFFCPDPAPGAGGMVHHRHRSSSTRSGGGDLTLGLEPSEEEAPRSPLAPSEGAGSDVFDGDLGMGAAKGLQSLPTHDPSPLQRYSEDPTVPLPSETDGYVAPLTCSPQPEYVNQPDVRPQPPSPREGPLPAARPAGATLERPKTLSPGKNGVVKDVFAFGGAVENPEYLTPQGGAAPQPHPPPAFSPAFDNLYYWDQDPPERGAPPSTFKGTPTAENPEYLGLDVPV
# [12] = target: Tyrosine-protein kinase HCK (Homo sapiens, UniProt P08631); assay: Inhibition of Hck kinase
# Tyrosine-protein kinase HCK, sequence (P08631 whole entry): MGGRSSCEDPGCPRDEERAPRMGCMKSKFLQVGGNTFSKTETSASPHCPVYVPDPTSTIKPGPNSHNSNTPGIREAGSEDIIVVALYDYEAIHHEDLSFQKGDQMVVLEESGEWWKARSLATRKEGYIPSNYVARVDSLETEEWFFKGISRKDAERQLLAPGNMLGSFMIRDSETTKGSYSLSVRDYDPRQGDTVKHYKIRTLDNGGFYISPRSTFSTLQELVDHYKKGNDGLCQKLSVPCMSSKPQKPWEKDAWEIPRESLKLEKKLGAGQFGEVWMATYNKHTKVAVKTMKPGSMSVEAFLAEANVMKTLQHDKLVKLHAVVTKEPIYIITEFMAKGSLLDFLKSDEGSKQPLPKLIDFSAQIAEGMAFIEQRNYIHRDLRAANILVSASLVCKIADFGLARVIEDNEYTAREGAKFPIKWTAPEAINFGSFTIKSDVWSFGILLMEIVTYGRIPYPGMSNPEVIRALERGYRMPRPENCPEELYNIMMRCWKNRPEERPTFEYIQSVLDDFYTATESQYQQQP
# [13] = target: T3, Tyrosine-protein kinase JAK3 (Homo sapiens, UniProt P52333); assay: Inhibition of Jak3 kinase
# T3 sequence (P52333 whole entry): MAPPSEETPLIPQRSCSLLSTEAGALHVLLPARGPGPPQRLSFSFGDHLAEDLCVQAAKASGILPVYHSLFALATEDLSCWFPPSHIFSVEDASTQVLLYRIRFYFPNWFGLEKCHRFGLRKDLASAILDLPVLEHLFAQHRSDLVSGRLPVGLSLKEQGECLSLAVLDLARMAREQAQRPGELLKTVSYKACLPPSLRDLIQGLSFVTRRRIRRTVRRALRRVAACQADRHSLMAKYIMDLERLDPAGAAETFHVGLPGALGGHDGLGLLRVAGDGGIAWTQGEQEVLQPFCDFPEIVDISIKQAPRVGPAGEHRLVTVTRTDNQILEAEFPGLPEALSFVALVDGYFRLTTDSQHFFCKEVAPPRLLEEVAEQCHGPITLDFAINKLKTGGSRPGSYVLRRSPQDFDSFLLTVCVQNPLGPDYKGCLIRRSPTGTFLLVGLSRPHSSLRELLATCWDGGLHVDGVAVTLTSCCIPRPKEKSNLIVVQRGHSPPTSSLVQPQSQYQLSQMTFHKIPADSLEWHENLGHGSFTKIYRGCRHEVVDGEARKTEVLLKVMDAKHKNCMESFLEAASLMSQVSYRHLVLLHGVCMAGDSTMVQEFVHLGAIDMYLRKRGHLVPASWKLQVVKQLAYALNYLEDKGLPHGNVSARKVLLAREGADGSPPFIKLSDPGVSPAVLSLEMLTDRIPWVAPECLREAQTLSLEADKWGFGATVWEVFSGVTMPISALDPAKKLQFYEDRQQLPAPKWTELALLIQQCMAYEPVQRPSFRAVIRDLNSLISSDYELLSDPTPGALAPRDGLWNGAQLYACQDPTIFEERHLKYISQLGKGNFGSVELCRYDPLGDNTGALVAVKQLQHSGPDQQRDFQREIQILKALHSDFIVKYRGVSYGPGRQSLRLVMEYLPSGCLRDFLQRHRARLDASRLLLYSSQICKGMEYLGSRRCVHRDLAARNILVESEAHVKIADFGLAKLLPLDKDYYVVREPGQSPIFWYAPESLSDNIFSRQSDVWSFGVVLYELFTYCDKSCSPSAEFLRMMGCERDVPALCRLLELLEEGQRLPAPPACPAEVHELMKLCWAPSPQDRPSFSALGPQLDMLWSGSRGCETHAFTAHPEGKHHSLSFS
# [14] = target: Proto-oncogene tyrosine-protein kinase Src (Homo sapiens, UniProt P12931); assay: Inhibition of Src kinase
# Proto-oncogene tyrosine-protein kinase Src, sequence (P12931 2-536 limits assumed): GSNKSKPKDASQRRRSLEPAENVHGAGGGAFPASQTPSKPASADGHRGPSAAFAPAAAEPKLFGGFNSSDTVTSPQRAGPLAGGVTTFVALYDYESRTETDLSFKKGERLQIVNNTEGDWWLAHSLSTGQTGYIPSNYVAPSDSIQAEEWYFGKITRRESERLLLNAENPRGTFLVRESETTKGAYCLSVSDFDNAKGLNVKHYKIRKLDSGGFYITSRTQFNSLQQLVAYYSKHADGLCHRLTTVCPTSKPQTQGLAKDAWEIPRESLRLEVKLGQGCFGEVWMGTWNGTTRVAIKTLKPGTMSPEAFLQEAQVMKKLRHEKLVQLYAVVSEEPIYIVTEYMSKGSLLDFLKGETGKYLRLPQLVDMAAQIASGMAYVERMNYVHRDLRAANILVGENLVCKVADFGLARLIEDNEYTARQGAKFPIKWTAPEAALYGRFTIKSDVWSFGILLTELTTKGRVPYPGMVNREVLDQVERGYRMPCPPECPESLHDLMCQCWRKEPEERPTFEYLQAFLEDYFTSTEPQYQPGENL
# [15] = target: T1, Tyrosine-protein kinase Lck; assay: Inhibition of Lck kinase
# T1 sequence (P06239 whole entry): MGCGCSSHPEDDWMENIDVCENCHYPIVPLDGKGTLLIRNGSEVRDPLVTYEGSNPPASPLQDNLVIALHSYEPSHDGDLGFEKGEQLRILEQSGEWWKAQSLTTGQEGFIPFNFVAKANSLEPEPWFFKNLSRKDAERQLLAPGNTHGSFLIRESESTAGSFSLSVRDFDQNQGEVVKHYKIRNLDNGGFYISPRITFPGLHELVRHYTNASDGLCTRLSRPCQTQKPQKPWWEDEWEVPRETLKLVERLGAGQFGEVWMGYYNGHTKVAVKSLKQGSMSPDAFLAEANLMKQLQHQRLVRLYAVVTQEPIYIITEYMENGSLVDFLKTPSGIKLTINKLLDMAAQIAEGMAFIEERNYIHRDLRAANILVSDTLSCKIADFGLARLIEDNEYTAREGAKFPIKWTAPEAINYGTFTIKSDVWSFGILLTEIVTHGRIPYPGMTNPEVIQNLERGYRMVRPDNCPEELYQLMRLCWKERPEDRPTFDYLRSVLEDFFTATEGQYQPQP
# T2 sequence (P06240 whole entry): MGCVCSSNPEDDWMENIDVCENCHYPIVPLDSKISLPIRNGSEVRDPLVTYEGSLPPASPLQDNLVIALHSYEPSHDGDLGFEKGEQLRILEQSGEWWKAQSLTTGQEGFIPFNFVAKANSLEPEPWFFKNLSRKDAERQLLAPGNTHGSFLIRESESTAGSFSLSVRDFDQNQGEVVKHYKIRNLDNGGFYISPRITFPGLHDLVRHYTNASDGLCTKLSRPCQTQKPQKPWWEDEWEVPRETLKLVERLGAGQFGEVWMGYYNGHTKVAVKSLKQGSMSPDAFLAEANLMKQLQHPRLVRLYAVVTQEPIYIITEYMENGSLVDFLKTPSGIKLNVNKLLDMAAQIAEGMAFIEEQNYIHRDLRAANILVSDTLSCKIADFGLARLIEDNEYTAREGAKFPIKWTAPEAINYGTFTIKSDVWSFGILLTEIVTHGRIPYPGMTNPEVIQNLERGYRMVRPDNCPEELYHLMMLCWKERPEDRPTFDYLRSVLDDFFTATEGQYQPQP
Compound,IC50 [4],IC50 [7],also measured
Cc1nc(NC(=O)OC(C)(C)C)sc1C(=O)Nc1c(Cl)cccc1Cl,–,–,IC50 [1]: 12.5 µM
Cc1cc(C)c(N(C)C(=O)c2sc(NC(=O)OC(C)(C)C)nc2C)c(C)c1,–,–,IC50 [2]: Not Active; IC50 [3]: Not Active
Cc1cccc(Cl)c1NC(=O)c1sc(NC(=O)c2ccco2)nc1C,0.71 µM,–,–
CCc1nc(NC(=O)OC(C)(C)C)sc1C(=O)Nc1c(C)cc(C)cc1C,> 30 µM,–,–
Cc1cccc(Cl)c1NC(=O)c1sc(NC(=O)c2ccccc2)nc1C,4.5 µM,–,–
Cc1cccc(Cl)c1NC(=O)c1sc(NC(=O)OC(C)(C)C)nc1C,–,–,IC50 [5]: 28 µM; IC50 [6]: 9.6 µM
Cc1cc(C)c(NC(=O)c2sc(NC(=O)c3ccco3)nc2C)c(C)c1,0.36 µM,–,–
Cc1cccc(Cl)c1NC(=O)c1cnc(NC(=O)c2ccccc2)s1,0.89 µM,–,–
Cc1cc(C)c(NC(=O)c2sc(NC(=O)OC(C)(C)C)nc2C)c(C)c1,–,–,IC50 [5]: 1.5 µM; IC50 [6]: 3 µM
Cc1cc(C)c(NC(=O)c2sc(NC(=O)OC(C)(C)C)nc2-c2ccccc2)c(C)c1,> 30 µM,–,–
Cc1cccc(Cl)c1NC(=O)c1cnc(NC(=O)C2CC2)s1,0.035 µM,–,IC50 [8]: > 25 µM; IC50 [9]: > 25 µM; IC50 (Focal adhesion kinase 1): > 25 µM; IC50 [10]: 0.071 µM; IC50 [11]: > 25 µM; IC50 [12]: 0.31 µM; IC50 [13]: 0.044 µM; IC50 [14]: 0.01 µM; IC50 [15]: 0.035 µM
Cc1cccc(C(C)C)c1NC(=O)c1sc(NC(=O)OC(C)(C)C)nc1C,–,40.3 µM,–
Cc1cc(C)c(NC(=O)c2sc(N(C)C(=O)OC(C)(C)C)nc2C)c(C)c1,–,–,IC50 [2]: Not Active; IC50 [3]: Not Active
Cc1nc(NC(=O)OC(C)(C)C)sc1C(=O)Nc1ccccc1[N+](=O)[O-],–,> 50 µM,–
Cc1cc(C)c(NC(=O)c2sc(NC(=O)OC(C)(C)C)nc2C(F)(F)F)c(C)c1,> 30 µM,–,–
Cc1cc(C)c(NC(=O)c2sc(N)nc2C)c(C)c1,–,–,IC50 [5]: 5 µM; IC50 [6]: 6.6 µM
Cc1cc(C)c(NC(=O)c2cnc(NC(=O)C3CC3)s2)c(C)c1,0.018 µM,–,–
COC(=O)Nc1nc(C)c(C(=O)Nc2c(C)cc(C)cc2C)s1,0.7 µM,0.72 µM,–
Cc1cccc(C(C)(C)C)c1NC(=O)c1sc(NC(=O)OC(C)(C)C)nc1C,–,> 50 µM,–
Cc1cc(C)c(NC(=O)c2cnc(NC(=O)OC(C)(C)C)s2)c(C)c1,> 30 µM,–,–
Cc1nc(NC(=O)OC(C)(C)C)sc1C(=O)Nc1c(C(C)C)cccc1C(C)C,–,> 50 µM,–
Cc1cccc(Cl)c1NC(=O)c1sc(NC(=O)C2CC2)nc1C,1.4 µM,–,–
CCCCNC(=O)Nc1nc(C)c(C(=O)Nc2c(C)cccc2Cl)s1,0.62 µM,–,–
Cc1cc(C)c(NC(=O)c2sc(NC(=O)c3ccccc3)nc2C)c(C)c1,0.8 µM,0.32 µM,–
Cc1cc(Br)cc(C)c1NC(=O)c1sc(NC(=O)OC(C)(C)C)nc1C,–,–,IC50 [5]: 1.4 µM; IC50 [6]: 2.4 µM
CNC(=O)Nc1nc(C)c(C(=O)Nc2c(C)cc(C)cc2C)s1,0.24 µM,0.17 µM,–
COc1cc(NC(=O)c2sc(NC(=O)OC(C)(C)C)nc2C)cc(C(F)(F)F)c1,–,> 50 µM,–
Cc1cccc(C)c1NC(=O)c1sc(NC(=O)OC(C)(C)C)nc1C,–,–,IC50 [5]: 4.4 µM; IC50 [6]: 7.5 µM
CCCCNC(=O)Nc1nc(C)c(C(=O)Nc2c(C)cc(C)cc2C)s1,0.03 µM,0.07 µM,–

# Continued, in another order:
IC50 [4],IC50 [7],Compound,also measured
–,24.3 µM,COc1cccc(C)c1NC(=O)c1sc(NC(=O)OC(C)(C)C)nc1C,–
–,45.7 µM,Cc1ccccc1NC(=O)c1sc(NC(=O)OC(C)(C)C)nc1C,–
–,> 50 µM,Cc1nc(NC(=O)OC(C)(C)C)sc1C(=O)NCC(C)(C)C,–
> 50 µM,> 50 µM,Cc1nc(NC(=O)OC(C)(C)C)sc1C(=O)NC(C)C(C)C (centres undefined),–
–,> 50 µM,Cc1nc(NC(=O)OC(C)(C)C)sc1C(=O)N1CCN(C=O)CC1,–
–,> 50 µM,Cc1nc(NC(=O)OC(C)(C)C)sc1C(=O)NCC1CCCCC1,–
–,> 50 µM,Cc1nc(NC(=O)OC(C)(C)C)sc1C(=O)Nc1ccccc1,–
–,> 50 µM,Cc1cc(NC(=O)c2sc(NC(=O)OC(C)(C)C)nc2C)c(C)[nH]1,–
–,> 50 µM,Cc1nc(NC(=O)OC(C)(C)C)sc1C(=O)Nc1ccc(Cl)cc1Cl,–
